# Data: patent US12281108B2, “Pyrrolidinone derivatives as formyl peptide 2 receptor agonists” (BRISTOL-MYERS SQUIBB COMPANY, priority 2018, dated 2025)
# pEC50: −log10 of the molar value.
# Target: T1, human FPR2 receptors (Homo sapiens, UniProt P25090)
# T1 sequence (P25090 1-351): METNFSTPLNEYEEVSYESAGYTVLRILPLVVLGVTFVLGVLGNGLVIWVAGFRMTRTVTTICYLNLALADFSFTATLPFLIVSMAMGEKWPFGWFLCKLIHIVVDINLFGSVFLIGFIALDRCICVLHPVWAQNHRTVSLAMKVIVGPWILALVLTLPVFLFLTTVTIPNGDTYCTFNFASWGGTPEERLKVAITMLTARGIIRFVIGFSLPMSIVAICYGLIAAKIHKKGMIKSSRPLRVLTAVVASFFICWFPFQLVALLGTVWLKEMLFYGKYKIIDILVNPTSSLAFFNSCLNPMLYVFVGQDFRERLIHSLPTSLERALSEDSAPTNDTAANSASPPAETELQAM
# Assay: FPR2 cAMP assay in CHO cells overexpressing human FPR2 (HTRF)
# Format: cell-based
# Conditions: CHO cells overexpressing human FPR2; forskolin 5 μM; inhibition of cAMP production; read-out: hFPR2 cAMP2 EC50
# Description: N-formyl peptide receptors (FPRs) are a family of chemo attractant receptors that facilitate leukocyte response during inflammation. FPRs belong to the seven-transmembrane G protein-coupled receptor superfamily and are linked to inhibitory G-proteins (Gi). Three family members (FPR1, FPR2 and FPR3) have been identified in humans and are predominantly found in myeloid cells with varied distribution and have also been reported in multiple organs and tissues. After agonist binding, the FPRs activate a multitude of physiological pathways, such as intra cellular signaling transduction, Ca^2+ mobilization and transcription. The family interacts with a diverse set of ligands that includes proteins, polypeptides and fatty acid metabolites which activate both pro-inflammatory and pro-resolution downstream responses. FPR2 and FPR1 Cyclic Adenosine Monophosphate (cAMP) Assays were used to measure the in vitro activity of the compounds disclosed in this application.
# FPR2 and FPR1 Cyclic Adenosine Monophosphate (cAMP) Assays. A mixture of forskolin (5 μM final for FPR2 or 10 μM final for FPR1) and IBMX (200 μM final) were added to 384-well Proxiplates (Perkin-Elmer) pre-dotted with test compounds in DMSO (1% final) at final concentrations in the range of 0.020 nM to 100 μM. Chinese Hamster Ovary cells (CHO) overexpressing human FPR1 or human FPR2 receptors were cultured in F-12 (Ham's) medium supplemented with 10% qualified FBS, 250 μg/ml zeocin and 300 μg/ml hygromycin (Life Technologies). Reactions were initiated by adding 2,000 human FPR2 cells per well or 4,000 human FPR1 cells per well in Dulbecco's PBS (with calcium and magnesium) (Life Technologies) supplemented with 0.1% BSA (Perkin-Elmer). The reaction mixtures were incubated for 30 min at room temperature. The level of intracellular cAMP was determined using the HTRF HiRange cAMP assay reagent kit (Cisbio) according to manufacturer's instruction. Solutions of cryptate conjugated anti-cAMP and d2 flurorophore-labelled cAMP were made in a supplied lysis buffer separately. Upon completion of the reaction, the cells were lysed with equal volume of the d2-cAMP solution and anti-cAMP solution. After a 1-h room temperature incubation, time-resolved fluorescence intensity was measured using the Envision (Perkin-Elmer) at 400 nm excitation and dual emission at 590 nm and 665 nm. A calibration curve was constructed with an external cAMP standard at concentrations ranging from 1 μM to 0.1 pM by plotting the fluorescent intensity ratio from 665 nm emission to the intensity from the 590 nm emission against cAMP concentrations. The potency and activity of a compound to inhibit cAMP production was then determined by fitting to a 4-parametric logistic equation from a plot of cAMP level versus compound concentrations.
row,pEC50,SMILES
1,8.00,"COc1cc(F)c([C@@H]2CNC(=O)[C@H]2Nc2cc(-c3ccc(Cl)cc3)on2)c(F)c1 [Example 21, (3S,4R)-3-{[5-(4-chlorophenyl)-1,2-oxazol-3-yl]amino}-4-(2,6-difluoro-4-methoxyphenyl)pyrrolidin-2-one]"

# Same assay, conditions: hFPR2 assay; potency bins; read-out: hFPR2 agonist activity EC50
row,SMILES,pEC50
1,"COc1cc(F)c([C@@H]2CNC(=O)[C@H]2Nc2nc3ccc(Cl)cc3o2)c(F)c1 [Example 1, (3S,4R)-3-[(6-chloro-1,3-benzoxazol-2-yl)amino]-4-(2,6-difluoro-4-methoxyphenyl)pyrrolidin-2-one]",6.00 to 6.82
2,"COc1cc(F)c([C@@H]2CNC(=O)[C@H]2Nc2nnc(-c3ccc(Cl)cc3)s2)c(F)c1 [Example 2, (3S,4R)-3-{[5-(4-chlorophenyl)-1,3,4-thiadiazol-2-yl]amino}-4-(2,6-difluoro-4-methoxyphenyl)pyrrolidin-2-one]",≥ 7.40
3,"COc1cc(F)c([C@@H]2CNC(=O)[C@H]2Nc2nnc(-c3ccc(Cl)cc3)o2)c(F)c1 [Example 3, (3S,4R)-3-{[5-(4-chlorophenyl)-1,3,4-oxadiazol-2-yl]amino}-4-(2,6-difluoro-4-methoxyphenyl)pyrrolidin-2-one]",≥ 7.40
4,"COc1cc(F)c([C@@H]2CNC(=O)[C@H]2Nc2nnc(-c3ccccc3)o2)c(F)c1 [Example 4, (3S,4R)-4-(2,6-difluoro-4-methoxyphenyl)-3-[(5-phenyl-1,3,4-oxadiazol-2-yl)amino]pyrrolidin-2-one]",6.00 to 6.82
5,"COc1cc(F)c([C@@H]2CNC(=O)[C@H]2Nc2nnc(-c3ccc(F)c(F)c3)o2)c(F)c1 [Example 5, (3S,4R)-4-(2,6-difluoro-4-methoxyphenyl)-3-{[5-(3,4-difluorophenyl)-1,3,4-oxadiazol-2-yl]amino}pyrrolidin-2-one]",6.00 to 6.82
6,"COc1cc(F)c([C@@H]2CNC(=O)[C@H]2Nc2nnc(-c3cccnc3)o2)c(F)c1 [Example 6, (3S,4R)-4-(2,6-difluoro-4-methoxyphenyl)-3-{[5-(pyridin-3-yl)-1,3,4-oxadiazol-2-yl]amino}pyrrolidin-2-one]",6.00 to 6.82
7,"COc1cc(F)c([C@@H]2CNC(=O)[C@H]2Nc2nnc(-c3ccc(OC(F)(F)F)cc3)o2)c(F)c1 [Example 7, (3S,4R)-4-(2,6-difluoro-4-methoxyphenyl)-3-({5-[4-(trifluoromethoxy)phenyl]-1,3,4-oxadiazol-2-yl}amino)pyrrolidin-2-one]",6.82 to 7.40
8,"COc1cc(F)c([C@@H]2CNC(=O)[C@H]2Nc2nnc(-c3ccc(C(F)(F)F)cc3)o2)c(F)c1 [Example 8, (3S,4R)-4-(2,6-difluoro-4-methoxyphenyl)-3-({5-[4-(trifluoromethyl)phenyl]-1,3,4-oxadiazol-2-yl}amino)pyrrolidin-2-one]",≥ 7.40
9,"COc1cc(F)c([C@@H]2CNC(=O)[C@H]2Nc2nnc(-c3ccc(C#N)cc3)o2)c(F)c1 [Example 9, 4-(5-{[(3S,4R)-4-(2,6-difluoro-4-methoxyphenyl)-2-oxopyrrolidin-3-yl]amino}-1,3,4-oxadiazol-2-yl)benzonitrile]",6.00 to 6.82
10,"COc1cc(F)c([C@@H]2CNC(=O)[C@H]2Nc2nnc(-c3ccc(C(F)(F)F)nc3)o2)c(F)c1 [Example 10, (3S,4R)-4-(2,6-difluoro-4-methoxyphenyl)-3-({5-[6-(trifluoromethyl)pyridin-3-yl]-1,3,4-oxadiazol-2-yl}amino)pyrrolidin-2-one]",≥ 7.40
11,"COc1cc(F)c([C@@H]2CNC(=O)[C@H]2Nc2nnc(-c3ccc(C)cc3)o2)c(F)c1 [Example 11, (3S,4R)-4-(2,6-difluoro-4-methoxyphenyl)-3-{[5-(4-methylphenyl)-1,3,4-oxadiazol-2-yl]amino}pyrrolidin-2-one]",6.00 to 6.82
12,"COc1cc(F)c([C@@H]2CNC(=O)[C@H]2Nc2nnc(-c3ccc(F)cc3)o2)c(F)c1 [Example 12, (3S,4R)-4-(2,6-difluoro-4-methoxyphenyl)-3-{[5-(4-fluorophenyl)-1,3,4-oxadiazol-2-yl]amino}pyrrolidin-2-one]",6.82 to 7.40
13,"COc1cc(F)c([C@@H]2CNC(=O)[C@H]2Nc2nnc(-c3ccc(-n4cccn4)cc3)o2)c(F)c1 [Example 13, (3S,4R)-4-(2,6-difluoro-4-methoxyphenyl)-3-({5-[4-(1H-pyrazol-1-yl)phenyl]-1,3,4-oxadiazol-2-yl}amino)pyrrolidin-2-one]",6.00 to 6.82
14,"COc1cc(F)c([C@@H]2CNC(=O)[C@H]2Nc2nnc(-c3ccc(C(F)(F)F)cn3)o2)c(F)c1 [Example 14, (3S,4R)-4-(2,6-difluoro-4-methoxyphenyl)-3-({5-[5-(trifluoromethyl)pyridin-2-yl]-1,3,4-oxadiazol-2-yl}amino)pyrrolidin-2-one]",6.00 to 6.82

# Second part, the compound after the results:
row,pEC50,SMILES
1,6.00 to 6.82,"COc1cc(F)c([C@@H]2CNC(=O)[C@H]2Nc2nnc(-c3ccc(Cl)cc3F)o2)c(F)c1 [Example 15, (3S,4R)-3-{[5-(4-chloro-2-fluorophenyl)-1,3,4-oxadiazol-2-yl]amino}-4-(2,6-difluoro-4-methoxyphenyl)pyrrolidin-2-one]"
2,≥ 7.40,"COc1cc(F)c([C@@H]2CNC(=O)[C@H]2Nc2nnc(-c3ccc(Cl)nc3)o2)c(F)c1 [Example 16, (3S,4R)-3-{[5-(6-chloropyridin-3-yl)-1,3,4-oxadiazol-2-yl]amino}-4-(2,6-difluoro-4-methoxyphenyl)pyrrolidin-2-one]"
3,6.82 to 7.40,"COc1cc(F)c([C@@H]2CNC(=O)[C@H]2Nc2nnc(-c3ccc(C(F)F)cc3)o2)c(F)c1 [Example 17, (3S,4R)-4-(2,6-difluoro-4-methoxyphenyl)-3-({5-[4-(difluoromethyl)phenyl]-1,3,4-oxadiazol-2-yl}amino)pyrrolidin-2-one]"
4,≥ 7.40,"COc1cc(F)c([C@@H]2CN(C)C(=O)[C@H]2Nc2nnc(-c3ccc(Cl)cc3)o2)c(F)c1 [Example 20, (3S,4R)-3-{[5-(4-chlorophenyl)-1,3,4-oxadiazol-2-yl]amino}-4-(2,6-difluoro-4-methoxyphenyl)-1-methylpyrrolidin-2-one]"
5,≥ 7.40,"COc1cc(F)c([C@@H]2CNC(=O)[C@H]2Nc2cc(-c3ccc(OC(F)(F)F)cc3)on2)c(F)c1 [Example 23, (3S,4R)-4-(2,6-difluoro-4-methoxyphenyl)-3-({5-[4-(trifluoromethoxy)phenyl]-1,2-oxazol-3-yl}amino)pyrrolidin-2-one]"
6,6.00 to 6.82,"COc1cc(F)c([C@@H]2CNC(=O)[C@H]2Nc2ncc(-c3ccc(Cl)cc3)o2)c(F)c1 [Example 24, (3S,4R)-3-{[5-(4-chlorophenyl)-1,3-oxazol-2-yl]amino}-4-(2,6-difluoro-4-methoxyphenyl)pyrrolidin-2-one]"
7,6.00 to 6.82,"COc1cc(F)c([C@@H]2CNC(=O)[C@H]2Nc2nnc(C3CCC(F)(F)CC3)o2)c(F)c1 [Example 25, (3S,4R)-4-(2,6-difluoro-4-methoxyphenyl)-3-{[5-(4,4-difluorocyclohexyl)-1,3,4-oxadiazol-2-yl]amino}pyrrolidin-2-one]"
8,6.00 to 6.82,"COc1cc(F)c([C@@H]2CNC(=O)[C@H]2Nc2nnc(-c3ccc([S+]([O-])C(F)(F)F)cc3)o2)c(F)c1 (stereo partly drawn) [Example 26, (3S,4R)-4-(2,6-difluoro-4-methoxyphenyl)-3-{[5-(4-trifluoromethanesulfinylphenyl)-1,3,4-oxadiazol-2-yl]amino}pyrrolidin-2-one]"
9,6.82 to 7.40,"COc1cc(F)c([C@@H]2CNC(=O)[C@H]2Nc2nnc(-c3ccc(SC(F)(F)F)cc3)s2)c(F)c1 [Example 29, (3S,4R)-4-(2,6-difluoro-4-methoxyphenyl)-3-[(5-{4-[(trifluoromethyl)sulfanyl]phenyl}-1,3,4-thiadiazol-2-yl)amino]pyrrolidin-2-one]"
10,6.82 to 7.40,"COc1cc(F)c([C@@H]2CNC(=O)[C@H]2Nc2nnc(-c3ccc(OC(F)(F)F)cc3)s2)c(F)c1 [Example 30, (3S,4R)-4-(2,6-difluoro-4-methoxyphenyl)-3-({5-[4-(trifluoromethoxy)phenyl]-1,3,4-thiadiazol-2-yl}amino)pyrrolidin-2-one]"
